According to patent US11207379B2, “Peptides with anti-cancer activity” (IDP DISCOVERY PHARMA, S.L., priority 2016, dated 2021):
Read-outs that look alike come from different tables or passages of the source. Numbered stars: 1 amine (or outer) side, 2 acyl side, 3 side chain; on linkers, the order of the positions; unused ones are H or OH. Ends that are not written are not given here. Peptide text beside a SMILES is read from it. Suc = O=C(CCC(=O)[*:2])[*:1]

Experiments:
Format in all cases: cell-based
[1] = target: MM.1S, B Lymphoblast (multiple myeloma); experiment: Viability assay (MTT, Alamar Blue, hexosaminidase), 72 h
Protocol: MM.1S, B Lymphoblast (multiple myeloma), ATCC: CRL-2974
(§1) Cell lines A549, MCF-7 and RAMOS were cultured in incubator under CO2 (6%) at 37° C. in DMEM high glucose (Dulbecco's Modified Eagle Solution, Gibco-BRL 31966-21) medium with 10% fetal bovine serum inactivated (FBS) (Gibco-BRL 10106-169). Cell lines HL-60 and MM.1S were cultured in incubator at 37° C. in RPMI-1640 (Sigma R8758) medium with 10% of fetal bovine serum inactivated (FBS) and 2 mM glutamine (Sigma G7513). Cell lines BJ were cultured in incubator under CO2 (6%) at 37° C. in Eagle's Minimum Essential Medium (Sigma, M-2279) with 10% fetal bovine serum inactivated (FBS) (Gibco-BRL 10106-169).
(§2) During the amplification step and the assays adherent cells were rinsed with DPBS (Dulbecco's Phosphate Buffered Saline, Sigma D1283) three times and afterward treated for 5 minutes with trypsin ([…]) (Gibco-BRL, 15400054) in solution of DPBS at 37° C., and, once detached, transferred in the culturing medium. No-adherent cells were centrifuged and transferred in the culturing medium. Cells were counted in a Neubauer chamber after labelling with Tripan-Blue.
(§3) A549, MCF-7 and JB cells were seeded at a density of 5000 cells/well and HL-60, MM.1S and Ramos at 10000 cells/well in 100 μl of medium in 96 well plates. After 24 h, the compounds to be tested were added to calculate the dose/response curve at the starting concentration of 100 μM with serial dilutions (1:1). Controls are the untreated cells. Each experiment was performed in triplicate.
(§4) Cells were incubated during 72 h in incubator under CO2 atmosphere at 37° C. Cell viability was measured by means of MTT (3-(4,5-dimethylthiazol-2-yl)-2.5-diphenyltetrazolium bromide) assay, Alamar Blue® (Biosource DAL1100) and Hexosaminidase activity test, consecutively, following manufacturer instructions.
(§5) MTT: 1. Stock solution of MTT (475989 Calbiochem) was 5 mg/ml in PBS 1×. As negative control (experiment noise) 3 wells were treated with 20 μl/well of a solution of SDS 10% in H2O. The same control was used for Alamar Blue/Hexosaminidase. 10 μl/well of MTT solution were added and the plate was incubated for 3-4 hr. The medium was discarded and 100 μl of extracting buffer (PBS 1×, 15% SDS, 50% […] N,N-Dimethylformamide, pH 4.7) were added to each well. Plates were incubated for 16 h at room temperature under orbital shaking. Absorbance at 570 nm was finally measured.
(§6) Alamar Blue: 10 μl Alamar Blue solution was added to each well and the plates were incubated for […] in the incubator. Fluorescence ratio at 535/590 (excitation/emission) was measured in Cytofluor (Millipore) fluorimeter. Blank control was determined by lysis of untreated cells with con 2% of Triton X100, right before adding Alamar Blue solution.
(§7) Hexosaminidase activity test: after Alamar Blue lecture, medium was discarded and plates were rinsed once with PBS. 60 μl hexosaminidase substrate (p-nitrophenol-N-acetyl-beta-D-glucosamide 7.5 mM [Sigma N-9376], sodium citrate 0.1 M, pH 5.0, 0.25% Triton X-100) was added to each well and the plates were incubated at 37° C. for 2-5 h, according to the cell type (hexosaminidase activity changes according to the cell type). […] Blank control was the same as described before.
(§8) Data analysis was performed calculating the percentage of cell viability normalized vs. the values of negative control, which was considered equal to 100%. The dose/response curve was fitted through the sigmoidal equation dose-response (variable slope) and the EC50 values were calculated as follow: Y=Bottom+(Top−Bottom)/(1+10^{[(Log EC50−X)*HillSlope]},

[2] = target: HL-60, promyeloblast (acute myelocytic leukemia, AML); experiment: as above
Protocol: HL-60, promyeloblast (acute myelocytic leukemia, AML), ECACC: 98070106
as §1, §2, §3, §4, §5, §6, §7, §8

[3] = target: RAMOS, B lymphocyte (Burkitt's Lymphoma); experiment: as above
Protocol: RAMOS, B lymphocyte (Burkitt's Lymphoma), ATCC: CRL-1596
as §1, §2, §3, §4, §5, §6, §7, §8

[4] = target: MCF-7, epithelial (breast cancer); experiment: as above
Protocol: MCF-7, epithelial (breast cancer), ECACC: 86012803
as §1, §2, §3, §4, §5, §6, §7, §8

several tumor cell lines = experiment: Anticancer activity in viability assay, stated in words
Protocol: as §3, §4, §8

[5] = target: A549, epithelial (lung cancer); experiment: Viability assay (MTT, Alamar Blue, hexosaminidase), 72 h
Protocol: A549, epithelial (lung cancer), ATCC:CCL-185
as §1, §2, §3, §4, §5, §6, §7, §8

[6] = system: JB healthy cells (BJ, fibroblast, normal skin); experiment: as above
Protocol: BJ, fibroblast (normal skin), ATCC® CRL-2522™
as §1
as §2, with “No-adherent cells were centrifuged and transferred in the culturing medium.” left out, “Tripan-Blue. […]” for “Tripan-Blue.”
as §4, with “instructions. […]” for “instructions.”

HL-60 cells = experiment: Annexin V assay by flow cytometry; conditions: for Percentage of HL-60 gated cells (positive to Annexin V): compound at EC30, control = 100%
Protocol: (§9) Miltenyi Biotec Annexin V-FITC Kit was used. To detect apoptosis in early stage Phosphatidylserine in plasmatic membrane localization was measured, though the calcium dependent reaction with Annexine V. Annexin V molecules were labelled with different fluorophores (FITC) and analyzed by FACS. To detect apoptosis in late stage DNA-intercalating agents, such Propidium iodide (PI) were used.
(§10) Cells were seeded at a density range of 150000-30000 cells/well in 12 wells plates, and incubated at 37° C. in the incubator under CO2 atmosphere. After 24 h, treatments at 4 h, 8 h, 18 h, 48 h and 72 h were performed in cell lines A549, HL-60 and MM.1S, at IC30 and/or IC80, with compounds IDP-S09 and IL-09, in cell lines HL-60 and MM.1S with compound IDP-S04 and in cell line A549 with compounds IDP-S02 and IDP-S03. Staurosporine and compound 100258-F4 (Sigma) were used as positive control and reference compound, respectively.

MM.1S cells = experiment: Annexin V assay by flow cytometry
Protocol: as §9, §10

A549 cells = experiment: Annexin V assay by flow cytometry
Protocol: as §9
as §10, with “treatments at 4 h, 8 h, 18 h, 48 h and 72 h were performed in cell lines” left out

[7] = 4 h, compound at EC30, control = 100%
[8] = 4 h, compound at EC80, control = 100%

## CC(C)C[C@H](NC(=O)[C@H](C)NC(=O)[C@H](C)NC(=O)[C@H](Cc1ccccc1)NC(=O)[C@H](C)NC(=O)[C@H](CCCNC(=N)N)NC(=O)[C@H](CCCCN)NC(=O)[C@H](CC(C)C)NC(=O)[C@H](CCC(=O)O)NC(=O)[C@H](CC(N)=O)NC(=O)[C@H](CCCNC(=N)N)NC(=O)[C@H](CCCNC(=N)N)NC(=O)[C@H](CCC(N)=O)NC(=O)[C@H](CCCNC(=N)N)NC(=O)CCC(=O)O)C(=O)N[C@@H](CCCNC(=N)N)C(=O)N[C@@H](CC(=O)O)C(=O)N[C@@H](CCC(N)=O)C(=O)O [IDP-L13, RQRRNELKRAFAALRDQ] (Suc-RQRRNELKRAFAALRDQ-OH; N-terminus and C-terminus assumed)
[1]
  EC50: > 100 µM
[2]
  EC50: > 100 µM
[3]
  EC50: > 100 µM
[4]
  EC50: > 100 µM
Several tumor cell lines
  anticancer activity (active / inactive): inactive

## CC[C@H](C)[C@H](NC(=O)[C@H](Cc1ccc(O)cc1)NC(=O)[C@H](C)NC(=O)[C@H](CC(C)C)NC(=O)[C@H](C)NC(=O)[C@H](CCCCN)NC(=O)[C@H](CCCCN)NC(=O)[C@H](Cc1ccccc1)NC(=O)[C@@H](NC(=O)[C@@H](NC(=O)[C@@H](NC(=O)[C@H](CCCCN)NC(=O)[C@@H]1CCCN1)[C@@H](C)CC)C(C)C)[C@@H](C)CC)C(=O)O [IDP-L14α, Pro-Lys-Val-Val-Ile-Leu-Lys-Lys-Ala-Thr-Ala-Tyr-Ile]
[1]
  EC50: > 100 µM
[2]
  EC50: > 100 µM
[5]
  EC50: > 100 µM
[3]
  EC50: > 100 µM
[4]
  EC50: > 100 µM
Several tumor cell lines
  anticancer activity (active / inactive): inactive

## CC(C)C[C@H](NC(=O)[C@H](C)NC(=O)[C@H](C)NC(=O)[C@H](Cc1ccccc1)NC(=O)[C@H](CO)NC(=O)[C@H](CCCNC(=N)N)NC(=O)[C@H](CCCCN)NC(=O)[C@H](CC(C)C)NC(=O)[C@H](CCC(=O)O)NC(=O)[C@H](CC(N)=O)NC(=O)[C@H](CCCNC(=N)N)NC(=O)[C@H](CCCNC(=N)N)NC(=O)[C@H](CCC(N)=O)NC(=O)[C@H](CCCNC(=N)N)NC(=O)CCC(=O)O)C(=O)N[C@@H](CCCNC(=N)N)C(=O)N[C@@H](CC(=O)O)C(=O)N[C@@H](CCC(N)=O)C(=O)O [IDP-L12] (Suc-RQRRNELKRSFAALRDQ-OH; N-terminus and C-terminus assumed)
[1]
  EC50: > 100 µM
[2]
  EC50: > 100 µM
[3]
  EC50: > 100 µM
[4]
  EC50: > 100 µM
Several tumor cell lines
  anticancer activity (active / inactive): inactive

## CC[C@H](C)[C@H](NC(=O)[C@H](Cc1ccc(O)cc1)NC(=O)[C@H](C)NC(=O)[C@H](CC(C)C)NC(=O)[C@H](C)NC(=O)[C@H](CCCCN)NC(=O)[C@H](CCCCN)NC(=O)[C@H](Cc1ccccc1)NC(=O)[C@@H](NC(=O)[C@@H](NC(=O)[C@@H](NC(=O)[C@H](CCCCN)NC(=O)[C@@H]1CCCN1C(=O)[C@H](C)NC(=O)[C@H](CCCNC(=N)N)NC(=O)[C@H](CCCNC(=N)N)NC(=O)[C@H](CCCNC(=N)N)NC(=O)[C@H](CCCNC(=N)N)NC(=O)[C@H](CCCNC(=N)N)NC(=O)[C@H](CCCNC(=N)N)NC(=O)[C@H](CCCNC(=N)N)NC(=O)CCC(=O)O)[C@@H](C)CC)C(C)C)[C@@H](C)CC)C(N)=O [IDP-L09] (Suc-RRRRRRRAPKIVIFKKALAYI-NH2)
[1]; MM.1S cells, read-out: EC50
  EC50: 25 ± 1 µM
[2]; HL-60 cells, read-out: EC50
  EC50: 46 ± 6 µM
[5]; A549 cells, read-out: EC50
  EC50: 48 ± 5 µM
[3]; Ramos cells, read-out: EC50
  EC50: 28 ± 1 µM
[4]; MCF7 cells, read-out: EC50
  EC50: ~28 µM
[6]
  EC50: > 100 µM
HL-60 cells; 48 h
  Percentage of HL-60 gated cells (positive to Annexin V): 590%
HL-60 cells; 72 h
  Percentage of HL-60 gated cells (positive to Annexin V): 230%
HL-60 cells; HL-60 cells
  apoptosis induction (Annexin V by FACS), in words: apoptosis induction is significant after 48 h and 72 h at low concentrations (IC30)
MM.1S cells; [7]
  Percentage of MM.1S gated cells (positive to Annexin V): 50%
MM.1S cells; [8]
  Percentage of MM.1S gated cells (positive to Annexin V): 50%
MM.1S cells; 8 h, compound at EC30, control = 100%
  Percentage of MM.1S gated cells (positive to Annexin V): 220%
MM.1S cells; 8 h, compound at EC80, control = 100%
  Percentage of MM.1S gated cells (positive to Annexin V): 310%
MM.1S cells; 48 h, compound at EC30, control = 100%
  Percentage of MM.1S gated cells (positive to Annexin V): 190%
MM.1S cells; 72 h, compound at EC30, control = 100%
  Percentage of MM.1S gated cells (positive to Annexin V): 500%
MM.1S cells; MM.1S cells
  apoptosis induction (Annexin V by FACS), in words: induces apoptosis at 8 h, 48 h and 72 h at low concentration (IC30) and at 8 h at high concentration (IC80)
A549 cells; [7]
  Percentage of A549 gated cells (positive to Annexin V): 900%
A549 cells; [8]
  Percentage of A549 gated cells (positive to Annexin V): 2400%
A549 cells; 16 h, compound at EC30, control = 100%
  Percentage of A549 gated cells (positive to Annexin V): 400%
A549 cells; 16 h, compound at EC80, control = 100%
  Percentage of A549 gated cells (positive to Annexin V): 950%
A549 cells; A549 cells
  apoptosis induction (Annexin V by FACS), in words: fast induction (4 h) is observed

## NELKRSFFALRDQ-OH [IDP-L10, NELKRSFFALRDQ]
[1]
  EC50: > 100 µM
[2]
  EC50: > 100 µM
[3]
  EC50: > 100 µM
[4]
  EC50: > 100 µM
Several tumor cell lines
  anticancer activity (active / inactive): inactive
